Tests used:
FLAG-Gli2 = assay: Analysis of Gli2 processing and Shh-dependent Gli2 stabilization; assay type: cell-based, mouse; settings: Shh-EGFP FLAG-Gli2 cells, absence and presence of Shh, 24 h
Experimental: Analysis of Gli2 processing and Shh-dependent Gli2 stabilization. […] Each compound incubation was also done in the absence and presence of 5% Shh-N-conditioned medium, and the cells were maintained under these conditions for 24 h. The cells were subsequently solubilized in lysis buffer (100 μL/well; 50 mM Tris-HCl, pH 7.4, 1% Triton X-100, 250 mM NaCl, 2 mM EDTA, 20 mM NaF, 2 mM Na3VO4, 2 mM 2-mercaptoethanol, EDTA-free protease inhibitor cocktail (Roche)). This suspension was transferred to a 1.5-mL centrifuge tube and incubated on ice for 30 min, with vortexing every 5 min. The cell lysates were then centrifuged at 20,000×g at 4° C. for 20 min. Supernatants were removed, and a BCA protein assay was performed to quantify protein levels. Mouse anti-FLAG M2 agarose slurry (20 μL, Sigma) was pelleted by centrifugation and incubated with 800 ng of protein from each condition for 90 min at 4° C. and then washed three times with 1 mL of wash buffer (75 mM Tris-HCl buffer, pH 8.0 containing 225 mM NaCl, 0.5% Triton X-100) and centrifuged at 2,300×g at 4° C. The agarose beads were suspended in 30 μL of 1×SDS-PAGE sample buffer (50 mM Tris-HCl, pH 6.8 containing 10% glycerol, 2% SDS, 50 mM DTT, 200 mM 2-mercaptoethanol, and 0.001% bromophenol blue), and the mixture was boiled for 5 min. The samples were then resolved on a 4-12% Bis-Tris Criterion XT gel and transferred to a PVDF membrane. The membrane was dehydrated with methanol, and then probed with rabbit anti-FLAG antibody (Sigma; 1:1,000 dilution in blocking buffer (PBS 21 containing 3% non-fat dried milk and 0.01% Tween 20)) for 90 min. […] Blots were washed 4×3 min in PBS, and the immunoreactive bands were detected with a SuperSignal West Dura kit and a ChemiDoc XRS system. Protein bands were quantified using Quantity One software (Bio-Rad). For each experiment, boxes of equal size were drawn around the FLAG-Gli2 and FLAG-Gli2R bands. Band intensities were then normalized to the average intensity for all bands in a given experiment. The results from all experiments were averaged and normalized relative to the basal level of FLAG-Gli2 (DMSO treatment without Shh-N-conditioned medium).

FLAG-Gli1 = assay: Analysis of Gli1 stability; assay type: cell-based, mouse; settings: Shh-LIGHT2 FLAG-Gli1 cells, 24 h
Experimental: Analysis of Gli1 stability. […] The cells were maintained under these conditions for 24 h. The cells were subsequently solubilized in lysis buffer (100 μL/well; 50 mM Tris-HCl, pH 7.4, 1% Triton X-100, 250 mM NaCl, 2 mM EDTA, 20 mM NaF, 2 mM Na3VO4, 2 mM 2-mercaptoethanol, and EDTA-free protease inhibitor cocktail (Roche)). This suspension was transferred to a 1.5-mL centrifuge tube and incubated on ice for 30 min, with vortexing every 5 min. The cell lysates were then centrifuged at 20,000×g at 4° C. for 20 min. Supernatants were removed, and a BCA assay was performed to quantify protein levels. 15 μg […] of protein from each sample was solubilized in 1×SDS-PAGE sample buffer (50 mM Tris-HCl, pH 6.8 containing 10% glycerol, 2% SDS, 50 mM DTT, 200 mM 2-mercaptoethanol, and 0.001% bromophenol blue) and boiled for 5 min. The samples were then resolved on a 4-12% Bis-Tris Criterion XT gel and transferred to a PVDF membrane. The membrane was dehydrated with methanol, and then probed with mouse anti-FLAG M2 antibody (Sigma; 1:1,000 dilution in blocking buffer (PBS containing 3% non-fat dried milk and 0.01% Tween 20)) for 90 min. The blots were washed 4×5 min in PBS containing 0.01% Tween 20 and then probed with horseradish peroxidase-conjugated sheep anti-mouse IgG antibody (GE Healthcare; 1:10,000 dilution in blocking buffer) for 1 h. The membranes were washed again 4×3 min in PBS, and immunoreactive bands were detected with a SuperSignal West Dura kit and a ChemiDoc XRS system. To probe for loading controls, the blots were rinsed with PBS, incubated for 1 min in methanol, washed 3×5 min in PBS, and then re-blocked for 1 h in PBS containing 5% non-fat dried milk and 0.1% Tween 20. […] Protein bands were quantified using Quantity One software (Bio-Rad). FLAG-Gli1 and importin β1 bands were normalized to the average band intensities for each experiment. The ratio of these two values was then used to determine the relative amount of FLAG-Gli1 per condition. Results from three independent experiments were then averaged, and normalized to FLAG-Gli1 levels in DMSO-treated cells.

CREB = assay: PKA-mediated CREB phosphorylation assay; assay type: cell-based; settings: NIH-3T3 cells; 15 μM HPI-1, 20 μM HPI-2
Experimental: PKA-mediated CREB phosphorylation assay. […] The cells were cultured for an additional 2 h and then lysed in hot 2×SDS-PAGE sample buffer (100 mM Tris, pH 6.8, 200 mM DTT, 0.02% bromophenol blue, 16 20 mM NaF, 2 mM sodium orthovandate, 4% SDS, and 20% glycerol). After the samples were boiled for 5 min, they were resolved on 4-12% Criterion XT gels (Bio-Rad) and transferred to PVDF membranes (Millipore). The membranes were blocked overnight in TBST buffer (Trisbuffered saline with 0.1% Tween 20) containing 5% bovine serum albumin and then probed with either anti-phosphorylated CREB (87G3, Cell Signaling Technology; 1:1,000 dilution) or CREB (48H2, Cell Signaling Technology, 1:1,000 dilution) antibodies.

Smo = Smo (Mus musculus, UniProt P56726); assay: FRET assay for Smo multimerization (Smo-CFP/Smo-YFP); assay type: cell-based, murine; parameters: expressed in transfected cells; host or cells: NIH-3T3; settings: 10 μM HPIs; for Shh-induced fold change in Smo-CFP/Smo-YFP FRET: 10 μM cyclopamine, 500 nM SAG
Experimental: FRET assay for Smo multimerization. […] The cells were washed with PBS buffer, fixed with 4% paraformaldehyde for 20 min, and mounted on slides in 80% glycerol. Fluorescence signals were acquired with the 100× objective of a Zeiss LSM510 confocal microscope with the following conditions: CFP was excited by 458-nm light and the emission was collected through a BP 480-520-nm filter. YFP was excited by 514-nm light and the emission was collected through a BP 535-590-nm filter. The CFP signal was obtained before and after photobleaching YFP(CFPBP and CFPAP, respectively) using the full power of the 514-nm laser line for 1-2 min at the top half of each cell, leaving the bottom half unbleached as an internal control. The CFP fluorescence intensity was analyzed using Metamorph software (Universal Imaging Corp.), and the energy transfer efficiency was calculated using the formula: FRET %=((CFPAP−CFPBP)/CFPAP)×100. Photobleached areas in 11-19 cells were analyzed for each experimental condition.

Chain of Smo (P56726 33-793): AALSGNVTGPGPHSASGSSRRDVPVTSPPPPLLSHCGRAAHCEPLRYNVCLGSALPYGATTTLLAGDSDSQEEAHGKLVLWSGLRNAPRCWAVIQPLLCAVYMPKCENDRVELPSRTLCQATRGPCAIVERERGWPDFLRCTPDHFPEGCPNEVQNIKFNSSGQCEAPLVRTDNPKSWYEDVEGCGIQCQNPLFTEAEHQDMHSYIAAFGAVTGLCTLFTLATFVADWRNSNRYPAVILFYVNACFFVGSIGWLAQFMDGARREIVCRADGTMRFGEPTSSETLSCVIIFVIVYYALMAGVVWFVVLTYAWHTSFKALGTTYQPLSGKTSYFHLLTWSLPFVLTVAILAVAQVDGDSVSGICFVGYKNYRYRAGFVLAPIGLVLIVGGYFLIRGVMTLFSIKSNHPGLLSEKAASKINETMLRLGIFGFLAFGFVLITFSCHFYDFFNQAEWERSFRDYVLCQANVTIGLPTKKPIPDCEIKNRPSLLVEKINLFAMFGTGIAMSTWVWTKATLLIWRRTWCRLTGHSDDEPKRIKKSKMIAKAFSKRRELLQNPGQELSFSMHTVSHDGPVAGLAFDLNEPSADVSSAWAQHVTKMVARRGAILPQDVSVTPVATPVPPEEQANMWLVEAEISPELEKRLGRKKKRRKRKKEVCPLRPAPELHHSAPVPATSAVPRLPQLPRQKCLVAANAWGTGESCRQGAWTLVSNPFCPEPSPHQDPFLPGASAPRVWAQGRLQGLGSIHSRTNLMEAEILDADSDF
Chain of Smo (P56726 33-793): as above

## COCCOC(=O)C1=C(C)NC2=C(C(=O)CC(c3ccccc3OC)C2)C1c1cccc(O)c1 (mixture of isomers) [Compound 8, 4-(3-Hydroxy-phenyl)-7-(2-methoxy-phenyl)-2-methyl-5-oxo-1,4,5,6,7,8-hexahydro-quinoline-3-carboxylic acid 2-methoxy-ethyl ester]
FLAG-Gli2
  FLAG-Gli2 levels and processing (immunoblotting): slightly elevated levels of full-length and repressor forms of FLAG-Gli2 under basal conditions and greater FLAG-Gli2 processing upon Shh stimulation
FLAG-Gli1
  FLAG-Gli1 stability/levels (immunoblotting): increased
CREB
  PKA-dependent phosphorylation of CREB: does not induce the PKA-dependent phosphorylation
Smo
  Shh-induced fold change in Smo-CFP/Smo-YFP FRET: attenuated the fold-change in Smo-CFP/Smo-YFP FRET upon Shh stimulation

## OCCNc1nc(N2CCN(c3ccccc3)CC2)nc2ccccc12 [Compound 11]
FLAG-Gli2
  FLAG-Gli2 levels and processing (immunoblotting): moderately increased total FLAG-Gli2 levels as well but did not alter proteolytic processing of the transcription factor
FLAG-Gli1
  FLAG-Gli1 stability/levels (immunoblotting): neither HPI-2 or HPI-3 had any significant effect on FLAG-Gli1 levels
Smo
  Basal Smo-CFP/Smo-YFP FRET levels: decreased basal FRET levels

## N#CC(C(=O)c1ccc(Cl)cc1Cl)=C1NC(=O)c2ccccc2N1 [Compound 18]
FLAG-Gli2
  FLAG-Gli2 levels and processing (immunoblotting): both decreased total FLAG-Gli2 levels and prevented Shh dependent stabilization of full-length FLAG-Gli2
FLAG-Gli1
  FLAG-Gli1 stability/levels (immunoblotting): decreased
Smo
  Basal Smo-CFP/Smo-YFP FRET levels: decreased basal FRET levels

## COc1ccc(OC)c2c1cc1n2CC(C)(C(=O)NC2CCCCCCC2)N(CCN(C)C)C1=O (stereo not drawn) [Compound 17]
FLAG-Gli2
  FLAG-Gli2 levels and processing (immunoblotting): moderately increased total FLAG-Gli2 levels as well but did not alter proteolytic processing of the transcription factor
FLAG-Gli1
  FLAG-Gli1 stability/levels (immunoblotting): neither HPI-2 or HPI-3 had any significant effect on FLAG-Gli1 levels
CREB
  PKA-dependent phosphorylation of CREB: significantly lower than that observed in forskolin-treated cells
Smo
  Basal Smo-CFP/Smo-YFP FRET levels: decreased basal FRET levels
  Shh-induced fold change in Smo-CFP/Smo-YFP FRET: attenuated the fold-change in Smo-CFP/Smo-YFP FRET upon Shh stimulation
